Measured values taken from the supplement of paper PMC11451515.

Test system: SEM cells
Experiment: cell viability relative to DMSO control; higher = less cytotoxic
Details: 48 h
Method in brief: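 NOMO1 or SEM (500 cells/well) or P12-Ichikawa (1000 cells/well) leukemia cells were adapted for at least four passages in each medium. They were seeded in 1536-well plates (5 μl) and pin-dosed with library compounds in DMSO over an 11-point threefold series, 47 μM to 0.79 nM. CellTiter-Glo One luminescence was read after 48 h at 37°C. Viability is the per-plate percentage relative to DMSO wells, with cell-free wells as background.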

[1] = HPLM + 10% dialyzed FBS, 0.000781 µM
[2] = HPLM + 10% dialyzed FBS, 0.00234 µM
[3] = HPLM + 10% dialyzed FBS, 0.00702 µM
[4] = HPLM + 10% dialyzed FBS, 0.0211 µM
[5] = HPLM + 10% dialyzed FBS, 0.0632 µM
[6] = HPLM + 10% dialyzed FBS, 0.19 µM
[7] = HPLM + 10% dialyzed FBS, 0.569 µM
[8] = HPLM + 10% dialyzed FBS, 1.71 µM
[9] = HPLM + 10% dialyzed FBS, 5.12 µM
[10] = HPLM + 10% dialyzed FBS, 15.4 µM
[11] = HPLM + 10% dialyzed FBS, 46.1 µM
[12] = RPMI 5 mM glucose + 10% FBS, 0.000781 µM
[13] = RPMI 5 mM glucose + 10% FBS, 0.00234 µM
[14] = RPMI 5 mM glucose + 10% FBS, 0.00702 µM
[15] = RPMI 5 mM glucose + 10% FBS, 0.0211 µM
[16] = RPMI 5 mM glucose + 10% FBS, 0.0632 µM
[17] = RPMI 5 mM glucose + 10% FBS, 0.19 µM
[18] = RPMI 5 mM glucose + 10% FBS, 0.569 µM
[19] = RPMI 5 mM glucose + 10% FBS, 1.71 µM
[20] = RPMI 5 mM glucose + 10% FBS, 5.12 µM
[21] = RPMI 5 mM glucose + 10% FBS, 15.4 µM
[22] = RPMI 5 mM glucose + 10% FBS, 46.1 µM
[23] = RPMI 5 mM glucose + 10% dialyzed FBS, 0.000781 µM
[24] = RPMI 5 mM glucose + 10% dialyzed FBS, 0.00234 µM
[25] = RPMI 5 mM glucose + 10% dialyzed FBS, 0.00702 µM
[26] = RPMI 5 mM glucose + 10% dialyzed FBS, 0.0211 µM
[27] = RPMI 5 mM glucose + 10% dialyzed FBS, 0.0632 µM
[28] = RPMI 5 mM glucose + 10% dialyzed FBS, 0.19 µM
[29] = RPMI 5 mM glucose + 10% dialyzed FBS, 0.569 µM
[30] = RPMI 5 mM glucose + 10% dialyzed FBS, 1.71 µM
[31] = RPMI 5 mM glucose + 10% dialyzed FBS, 5.12 µM
[32] = RPMI 5 mM glucose + 10% dialyzed FBS, 15.4 µM
[33] = RPMI 5 mM glucose + 10% dialyzed FBS, 46.1 µM

Row | SMILES | cell viability [1] [%] | cell viability [2] [%] | cell viability [3] [%] | cell viability [4] [%] | cell viability [5] [%] | cell viability [6] [%] | cell viability [7] [%] | cell viability [8] [%] | cell viability [9] [%] | cell viability [10] [%] | cell viability [11] [%] | cell viability [12] [%] | cell viability [13] [%] | cell viability [14] [%] | cell viability [15] [%] | cell viability [16] [%] | cell viability [17] [%] | cell viability [18] [%] | cell viability [19] [%] | cell viability [20] [%] | cell viability [21] [%] | cell viability [22] [%] | cell viability [23] [%] | cell viability [24] [%] | cell viability [25] [%] | cell viability [26] [%] | cell viability [27] [%] | cell viability [28] [%] | cell viability [29] [%] | cell viability [30] [%] | cell viability [31] [%] | cell viability [32] [%] | cell viability [33] [%]
1 | CC\1=C(C(=O)N(\C=C1)C2=CC=C(C=C2)C3=NC=CO3)/C4=CC5=CN=C(N)N=C5C=C4 | 96.2 | 95 | 109 | 99.8 | 100 | 103 | 76.2 | 84 | 40.8 | 36 | 27 | 87.3 | 115 | 127 | 121 | 108 | 111 | 97.4 | 101 | 38.5 | 29.5 | 21.3 | 90 | 104 | 118 | 102 | 97.1 | 97.4 | 68.9 | 72.1 | 26.1 | 20.4 | 19.1
2 | COc1cc2nc(N3CCCN(C)CC3)nc(NC3CCN(Cc4ccccc4)CC3)c2cc1OC | 92.1 | 122 | 129 | 111 | 130 | 119 | 125 | 98.1 | 60.1 | 37.5 | 10.2 | 104 | 116 | 140 | 113 | 132 | 127 | 143 | 97.7 | 108 | 44.8 | 11.5 | 112 | 117 | 131 | 104 | 128 | 132 | 132 | 131 | 92.3 | 55.9 | 19.1
3 | CC(C)(C)C(=O)Oc1ccc([S+](=O)([O-])Nc2ccccc2C(=O)NCC(=O)O)cc1 | 107 | 106 | 111 | 109 | 116 | 122 | 74.3 | 58.9 | 123 | 128 | 124 | 95.5 | 93.9 | 88.9 | 92.8 | 104 | 107 | 95.1 | 48.8 | 91.6 | 96.7 | 90.4 | 106 | 99.3 | 104 | 123 | 94.6 | 116 | 93.7 | 50.6 | 98.8 | 109 | 124
4 | CC(C)Oc1cc(Nc2nc(N[C@@H](C)c3ccc(F)cn3)ncc2Cl)n[nH]1 | 106 | 103 | 90.3 | 102 | 96.3 | 80.5 | 50.5 | 34.6 | 26 | 22.1 | 25.3 | 109 | 83.1 | 96 | 95.6 | 108 | 81.2 | 60.3 | 21.9 | 19.2 | 14.8 | 16.2 | 84.9 | 98 | 100 | 114 | 83 | 67.9 | 43.4 | 26.3 | 17.9 | 14.9 | 16.2
5 | C\C1=C\C(=O)C2=C(C=CC=C2)C1=O | 95.9 | 110 | 102 | 109 | 126 | 123 | 106 | 114 | 111 | 96.1 | 80.4 | 104 | 101 | 113 | 111 | 113 | 106 | 101 | 89.2 | 95.3 | 95.9 | 59.9 | 94.7 | 102 | 114 | 114 | 112 | 111 | 117 | 111 | 84.3 | 71.3 | 50.6
6 | CC(C)[C@@H](C[S+](=O)([O-])C(C)C)N1C(=O)[C@@](C)(CC(=O)O)C[C@H](c2cccc(Cl)c2)[C@H]1c1ccc(Cl)cc1 | 124 | 107 | 125 | 117 | 115 | 106 | 85.9 | 77.1 | 54.3 | 31.8 | 18.7 |  |  |  |  |  |  |  |  |  |  |  | 127 | 109 | 121 | 110 | 128 | 113 | 100 | 70.9 | 47.8 | 26.5 | 18.5
7 | C[N+]1(C)[C@@H]2C[C@@H](OC(=O)[C@H](CO)c3ccccc3)C[C@H]1[C@@H]1O[C@@H]12.[Br-] | 85 | 94.6 | 96.1 | 93.9 | 105 | 102 | 110 | 117 | 103 | 114 | 102 | 92.3 | 90.4 | 102 | 95.1 | 100 | 92 | 107 | 112 | 105 | 93.3 | 89.5 | 77.3 | 87.2 | 109 | 98.6 | 105 | 107 | 112 | 105 | 121 | 103 | 101
8 | CN1\C(=C(\O)C2=C(C=CS2)[S+]1([O-])=O)C(=O)NC3=CC=CC=N3 | 106 | 108 | 112 | 103 | 114 | 112 | 109 | 105 | 106 | 98.4 | 102 | 95 | 107 | 112 | 100 | 114 | 101 | 112 | 103 | 103 | 108 | 90.9 | 110 | 95.5 | 112 | 108 | 107 | 112 | 104 | 112 | 106 | 106 | 103
